Data reported in ChEMBL document CHEMBL1201861, “Genomics of Drug Sensitity in Cancer screening data, Wellcome Trust Sanger Institute”.

Experiments:
[1] = system: Capan-2; test: cells; format: functional, cell-based; conditions: Homo sapiens;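 further: Capan-2 cell growth inhibition, read out with a viability assay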
Description: SANGER: Inhibition of human Capan-2 cell growth in a cell viability assay.

[2] = system: ChaGo-K-1; test: cells; format: functional, cell-based; conditions: Homo sapiens;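 further: growth inhibition of ChaGo-K-1 cells, read out with a cell viability assay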
Description: SANGER: Inhibition of human ChaGo-K-1 cell growth in a cell viability assay.

[3] = system: DoTc2-4510; test: cells; format: functional, cell-based; conditions: Homo sapiens
[4] = system: FaDu; test: cells; format: functional, cell-based; conditions: Homo sapiens;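 further: cell viability readout of growth inhibition in FaDu cells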
Description: SANGER: Inhibition of human FADU cell growth in a cell viability assay.

[5] = system: GAMG; test: cells; format: functional, cell-based; conditions: Homo sapiens;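 further: cell growth inhibition measured by a viability assay in the GAMG human cell line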
Description: SANGER: Inhibition of human GAMG cell growth in a cell viability assay.

[6] = system: H4; test: cells; format: functional, cell-based; conditions: Homo sapiens
Description: SANGER: Inhibition of human H4 cell growth in a cell viability assay.

[7] = system: HCC1806; test: cells; format: functional, cell-based; conditions: Homo sapiens;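 further: growth inhibition of the cancer cell line, determined with a cell viability assay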
Description: SANGER: Inhibition of human HCC1806 cell growth in a cell viability assay.

[8] = system: HCC38; test: cells; format: functional, cell-based; conditions: Homo sapiens;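 further: cell viability assay on the human HCC38 cell line, with IC50 marking the concentration that inhibits cell growth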
Description: SANGER: Inhibition of human HCC38 cell growth in a cell viability assay.

[9] = system: HSC-2; test: cells; format: functional, cell-based; conditions: Homo sapiens;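 further: growth inhibition of human HSC-2 cells, read out by a cell viability assay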
Description: SANGER: Inhibition of human HSC-2 cell growth in a cell viability assay.

[10] = system: HT1197; test: cells; format: functional, cell-based, HT-1197; conditions: Homo sapiens
Description: SANGER: Inhibition of human HT-1197 cell growth in a cell viability assay.

[11] = system: HT-29; test: cells; format: functional, cell-based; conditions: Homo sapiens;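 further: growth inhibition of human HT-29 cells, read out by a cell viability assay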
Description: SANGER: Inhibition of human HT-29 cell growth in a cell viability assay.

[12] = system: Huh-7; test: cells; format: functional, cell-based; conditions: Homo sapiens;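 further: HuH-7 cell growth inhibition, read out with a cell viability assay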
Description: SANGER: Inhibition of human HuH-7 cell growth in a cell viability assay.

[13] = system: HuO9; test: cells; format: functional, cell-based; conditions: Homo sapiens;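 further: growth inhibition of HuO9 cells, read out with a cell viability assay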
Description: SANGER: Inhibition of human HuO9 cell growth in a cell viability assay.

[14] = system: KYSE-180; test: cells; format: functional, cell-based; conditions: Homo sapiens;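 further: growth inhibition of KYSE-180 cells, read out with a cell viability assay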
Description: SANGER: Inhibition of human KYSE-180 cell growth in a cell viability assay.

[15] = system: LCLC-103H cell line; test: cells; format: functional, cell-based; conditions: Homo sapiens
Description: SANGER: Inhibition of human LCLC-103H cell growth in a cell viability assay.

[16] = system: LoVo; test: cells; format: functional, cell-based; conditions: Homo sapiens;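 further: growth inhibition of human LoVo cells, read out with a cell viability assay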
Description: SANGER: Inhibition of human LoVo cell growth in a cell viability assay.

[17] = system: M14; test: cells; format: functional, cell-based; conditions: Homo sapiens;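 further: growth inhibition of M14 cells, read out with a cell viability assay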
Description: SANGER: Inhibition of human M14 cell growth in a cell viability assay.

[18] = system: MDA-MB-175-VII; test: cells; format: functional, cell-based; conditions: Homo sapiens
[19] = system: MKN-7; test: cells; format: functional, cell-based; conditions: Homo sapiens;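 further: growth inhibition of MKN-7 cells, read out with a cell viability assay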
Description: SANGER: Inhibition of human MKN7 cell growth in a cell viability assay.

[20] = system: NB7; test: cells; format: functional, cell-based; conditions: Homo sapiens;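 further: growth inhibition of NB7 cells, read out with a cell viability assay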
Description: SANGER: Inhibition of human NB7 cell growth in a cell viability assay.

[21] = system: NCI-H1755; test: cells; format: functional, cell-based; conditions: Homo sapiens;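 further: cell viability readout used to measure growth inhibition of NCI-H1755 cells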
Description: SANGER: Inhibition of human NCI-H1755 cell growth in a cell viability assay.

[22] = system: NCI-H1793; test: cells; format: functional, cell-based; conditions: Homo sapiens;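 further: cell growth inhibition, read out by a cell viability assay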
Description: SANGER: Inhibition of human NCI-H1793 cell growth in a cell viability assay.

[23] = system: NCI-H441; test: cells; format: functional, cell-based; conditions: Homo sapiens;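 further: growth inhibition of NCI-H441 cells, read out with a cell viability assay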
Description: SANGER: Inhibition of human NCI-H441 cell growth in a cell viability assay.

[24] = system: NUGC-3; test: cells; format: functional, cell-based; conditions: Homo sapiens;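 further: growth inhibition of human NUGC-3 cells, read out with a cell viability assay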
Description: SANGER: Inhibition of human NUGC-3 cell growth in a cell viability assay.

[25] = system: Panc1005; test: cells; format: functional, cell-based; conditions: Homo sapiens;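 further: growth inhibition of human PANC-10-05 cells, measured by a cell viability assay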
Description: SANGER: Inhibition of human PANC-10-05 cell growth in a cell viability assay.

[26] = system: PC-3; test: cells; format: functional, cell-based; conditions: Homo sapiens;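 further: cell viability assay measuring growth inhibition of PC-3 cells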
Description: SANGER: Inhibition of human PC-3 cell growth in a cell viability assay.

[27] = system: PFSK-1; test: cells; format: functional, cell-based; conditions: Homo sapiens;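 further: cell viability assay measuring how strongly compounds suppress growth of human PFSK-1 cells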
Description: SANGER: Inhibition of human PFSK-1 cell growth in a cell viability assay.

[28] = system: RT-112; test: cells; format: functional, cell-based; conditions: Homo sapiens
Description: SANGER: Inhibition of human RT-112 cell growth in a cell viability assay.

[29] = system: SAS; test: cells; format: functional, cell-based; conditions: Homo sapiens;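 further: growth inhibition of SAS cells, read out with a cell viability assay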
Description: SANGER: Inhibition of human SAS cell growth in a cell viability assay.

[30] = system: SCC-9; test: cells; format: functional, cell-based; conditions: Homo sapiens;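 further: Read-out is a cell viability assay, with values giving inhibition of cell growth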
Description: SANGER: Inhibition of human SCC-9 cell growth in a cell viability assay.

[31] = system: SK-LU-1; test: cells; format: functional, cell-based; conditions: Homo sapiens;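 further: cell viability assay measuring growth inhibition of human SK-LU-1 cells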
Description: SANGER: Inhibition of human SK-LU-1 cell growth in a cell viability assay.

[32] = system: SK-MEL3; test: cells; format: functional, cell-based, SK-MEL-3; conditions: Homo sapiens;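 further: growth inhibition of human SK-MEL-3 cells, read out with a cell viability assay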
Description: SANGER: Inhibition of human SK-MEL-3 cell growth in a cell viability assay.

[33] = system: SW1783; test: cells; format: functional, cell-based; conditions: Homo sapiens
Description: SANGER: Inhibition of human SW1783 cell growth in a cell viability assay.

[34] = system: T47D; test: cells; format: functional, cell-based; conditions: Homo sapiens;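 further: growth inhibition of human T47D cells, measured with a cell viability assay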
Description: SANGER: Inhibition of human T47D cell growth in a cell viability assay.

[35] = system: CWR22R; test: cells; format: functional, cell-based; conditions: Homo sapiens, 22Rv1;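 further: growth inhibition of 22Rv1 cells, read out with a cell viability assay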
Description: SANGER: Inhibition of human 22RV1 cell growth in a cell viability assay.

[36] = system: 5637; test: cells; format: functional, cell-based; conditions: Homo sapiens
Description: SANGER: Inhibition of human 5637 cell growth in a cell viability assay.

[37] = system: A-431; test: cells; format: functional, cell-based; conditions: Homo sapiens;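 further: growth inhibition of A-431 cells, determined with a cell viability read-out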
Description: SANGER: Inhibition of human A431 cell growth in a cell viability assay.

[38] = system: A673; test: cells; format: functional, cell-based; conditions: Homo sapiens;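 further: growth inhibition of human A673 cells, read out through a cell viability assay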
Description: SANGER: Inhibition of human A673 cell growth in a cell viability assay.

[39] = system: ASPC1; test: cells; format: functional, cell-based; conditions: Homo sapiens;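 further: growth inhibition of AsPC-1 cells, read out with a cell viability assay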
Description: SANGER: Inhibition of human AsPC-1 cell growth in a cell viability assay.

[40] = system: BCPAP; test: cells; format: functional, cell-based; conditions: Homo sapiens;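 further: growth inhibition of BCPAP cells, read out in a cell viability assay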
Description: SANGER: Inhibition of human BCPAP cell growth in a cell viability assay.

[41] = system: BHT-101; test: cells; format: functional, cell-based; conditions: Homo sapiens
Description: SANGER: Inhibition of human BHT-101 cell growth in a cell viability assay.

[42] = system: C-33-A; test: cells; format: functional, cell-based; conditions: Homo sapiens;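 further: cell viability assay measuring growth inhibition of C-33-A cells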
Description: SANGER: Inhibition of human C-33-A cell growth in a cell viability assay.

[43] = system: C3A; test: cells; format: functional, cell-based; conditions: Homo sapiens;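 further: growth inhibition of C3A human cells, quantified with a cell viability readout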
Description: SANGER: Inhibition of human C3A cell growth in a cell viability assay.

[44] = system: CAL-33; test: cells; format: functional, cell-based; conditions: Homo sapiens;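 further: growth inhibition of CAL-33 cells, read out with a cell viability assay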
Description: SANGER: Inhibition of human CAL-33 cell growth in a cell viability assay.

[45] = system: TGW; test: cells; format: functional, cell-based; conditions: Homo sapiens;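 further: growth inhibition of human TGW cells, read out with a cell viability assay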
Description: SANGER: Inhibition of human TGW cell growth in a cell viability assay.

[46] = system: YKG-1; test: cells; format: functional, cell-based; conditions: Homo sapiens;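 further: cell growth inhibition, read out with a viability assay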
Description: SANGER: Inhibition of human YKG-1 cell growth in a cell viability assay.

[47] = system: COR-L279; test: SANGER: Inhibition of human COR-L279 cell growth in a cell viability assay.; format: functional, cell-based
[48] = system: Daudi; test: cells; format: functional, cell-based; conditions: Homo sapiens;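 further: growth inhibition of Daudi cells, read out by a viability assay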
Description: SANGER: Inhibition of human Daudi cell growth in a cell viability assay.

[49] = system: G-361; test: cells; format: functional, cell-based; conditions: Homo sapiens
[50] = system: IST-SL2; test: cells; format: functional, cell-based; conditions: Homo sapiens;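 further: growth inhibition of human IST-SL2 cells, read out by a cell viability assay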
Description: SANGER: Inhibition of human IST-SL2 cell growth in a cell viability assay.

[51] = system: LC-1F; test: cells; format: functional, cell-based; conditions: Homo sapiens;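 further: growth inhibition of human LC-1F cells, read out with a cell viability assay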
Description: SANGER: Inhibition of human LC-1F cell growth in a cell viability assay.

[52] = system: MEL-JUSO; test: cells; format: functional, cell-based; conditions: Homo sapiens;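 further: growth inhibition of human MEL-JUSO cells, read out with a cell viability assay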
Description: SANGER: Inhibition of human MEL-JUSO cell growth in a cell viability assay.

[53] = system: MKN-28; test: cells; format: functional, cell-based; conditions: Homo sapiens;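 further: cell viability assay read-out, IC50 reflects suppression of growth of human MKN-28 cells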
Description: SANGER: Inhibition of human MKN28 cell growth in a cell viability assay.

[54] = system: NB1; test: cells; format: functional, cell-based; conditions: Homo sapiens;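 further: reduction of NB1 cell proliferation, read out with a viability assay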
Description: SANGER: Inhibition of human NB1 cell growth in a cell viability assay.

[55] = system: NCI-H1417; test: cells; format: functional, cell-based; conditions: Homo sapiens;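 further: human NCI-H1417 cells, growth inhibition determined with a cell viability readout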
Description: SANGER: Inhibition of human NCI-H1417 cell growth in a cell viability assay.

[56] = system: NCI-H2141; test: cells; format: functional, cell-based; conditions: Homo sapiens;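 further: growth inhibition of human NCI-H2141 cells, read out with a cell viability assay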
Description: SANGER: Inhibition of human NCI-H2141 cell growth in a cell viability assay.

[57] = system: NCI-H322M; test: cells; format: functional, cell-based; conditions: Homo sapiens;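 further: cell viability assay measuring inhibition of growth of human NCI-H322M cells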
Description: SANGER: Inhibition of human NCI-H322M cell growth in a cell viability assay.

[58] = system: OPM-2; test: cells; format: functional, cell-based; conditions: Homo sapiens;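 further: growth of OPM-2 cells measured with a viability assay, IC50 for suppression of proliferation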
Description: SANGER: Inhibition of human OPM-2 cell growth in a cell viability assay.

[59] = system: Raji; test: cells; format: functional, cell-based; conditions: Homo sapiens;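 further: cell viability assay measuring inhibition of Raji cell growth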
Description: SANGER: Inhibition of human Raji cell growth in a cell viability assay.

[60] = system: SR; test: cells; format: functional, cell-based; conditions: Homo sapiens
Description: SANGER: Inhibition of human SR cell growth in a cell viability assay.

[61] = system: SW837; test: cells; format: functional, cell-based; conditions: Homo sapiens
Description: SANGER: Inhibition of human SW837 cell growth in a cell viability assay.

[62] = system: ACHN; test: cells; format: functional, cell-based; conditions: Homo sapiens
Description: SANGER: Inhibition of human ACHN cell growth in a cell viability assay.

[63] = system: CAL-148; test: cells; format: functional, cell-based; conditions: Homo sapiens
Description: SANGER: Inhibition of human CAL-148 cell growth in a cell viability assay.

[64] = system: THP-1; test: cells; format: functional, cell-based; conditions: Homo sapiens
Description: SANGER: Inhibition of human THP-1 cell growth in a cell viability assay.

[65] = system: TUR; test: cells; format: functional, cell-based; conditions: Homo sapiens
Description: SANGER: Inhibition of human TUR cell growth in a cell viability assay.

Structure (SMILES): CC(=O)c1c(C)c2cnc(Nc3ccc(N4CCNCC4)cn3)nc2n(C2CCCC2)c1=O [PALBOCICLIB]
- IC50 [1]: > 4000 nM
- IC50 [2]: > 4000 nM
- IC50 [3]: > 4000 nM
- IC50 [4]: > 4000 nM
- IC50 [5]: 2590 nM
- IC50 [6]: 1730 nM
- IC50 [7]: > 4000 nM
- IC50 [8]: > 4000 nM
- IC50 [9]: > 4000 nM
- IC50 [10]: > 4000 nM
- IC50 [11]: > 4000 nM
- IC50 [12]: > 4000 nM
- IC50 [13]: > 4000 nM
- IC50 [14]: > 4000 nM
- IC50 [15]: > 4000 nM
- IC50 [16]: > 4000 nM
- IC50 [17]: > 4000 nM
- IC50 [18]: > 4000 nM
- IC50 [19]: > 4000 nM
- IC50 [20]: 1990 nM
- IC50 [21]: > 4000 nM
- IC50 [22]: > 4000 nM
- IC50 [23]: 1550 nM
- IC50 [24]: 2830 nM
- IC50 [25]: > 4000 nM
- IC50 [26]: 1350 nM
- IC50 [27]: > 4000 nM
- IC50 [28]: 321 nM
- IC50 [29]: 2200 nM
- IC50 [30]: > 4000 nM
- IC50 [31]: 1620 nM
- IC50 [32]: > 4000 nM
- IC50 [33]: > 4000 nM
- IC50 [34]: 1680 nM
- IC50 [35]: 1680 nM
- IC50 [36]: > 4000 nM
- IC50 [37]: > 4000 nM
- IC50 [38]: > 4000 nM
- IC50 [39]: 253 nM
- IC50 [40]: 1660 nM
- IC50 [41]: 198 nM
- IC50 [42]: > 4000 nM
- IC50 [43]: > 4000 nM
- IC50 [44]: > 4000 nM
- IC50 [45]: 1120 nM
- IC50 [46]: 1810 nM

Structure (SMILES): CO[C@@]12[C@H](COC(N)=O)C3=C(C(=O)C(C)=C(N)C3=O)N1C[C@@H]1N[C@@H]12 [MITOMYCIN]
- IC50 [47]: < 62.5 nM
- IC50 [1]: 2790 nM
- IC50 [2]: 1910 nM
- IC50 [48]: 392 nM
- IC50 [3]: 180 nM
- IC50 [4]: 128 nM
- IC50 [49]: 124 nM
- IC50 [5]: 428 nM
- IC50 [6]: < 62.5 nM
- IC50 [7]: 135 nM
- IC50 [8]: 604 nM
- IC50 [9]: 83.4 nM
- IC50 [10]: 2020 nM
- IC50 [11]: 36 nM
- IC50 [12]: 3220 nM
- IC50 [50]: 388 nM
- IC50 [14]: 202 nM
- IC50 [51]: 862 nM
- IC50 [15]: 461 nM
- IC50 [16]: 431 nM
- IC50 [17]: 1340 nM
- IC50 [18]: 3160 nM
- IC50 [52]: 51.3 nM
- IC50 [53]: 230 nM
- IC50 [19]: > 16000 nM
- IC50 [54]: 187 nM
- IC50 [55]: 237 nM
- IC50 [21]: 5440 nM
- IC50 [22]: 1810 nM
- IC50 [56]: 853 nM
- IC50 [57]: 1800 nM
- IC50 [23]: 17.6 nM
- IC50 [24]: 16.9 nM
- IC50 [58]: 6350 nM
- IC50 [25]: 73.7 nM
- IC50 [26]: 4070 nM
- IC50 [27]: 5880 nM
- IC50 [28]: 178 nM
- IC50 [59]: 1220 nM
- IC50 [29]: 615 nM
- IC50 [30]: 3790 nM
- IC50 [31]: < 62.5 nM
- IC50 [32]: 711 nM
- IC50 [60]: < 62.5 nM
- IC50 [33]: 38.6 nM
- IC50 [61]: 276 nM
- IC50 [34]: 6370 nM
- IC50 [35]: 144 nM
- IC50 [36]: 31.9 nM
- IC50 [37]: 43.8 nM
- IC50 [38]: 790 nM
- IC50 [62]: 72.1 nM
- IC50 [39]: 2900 nM
- IC50 [40]: 240 nM
- IC50 [41]: 1740 nM
- IC50 [42]: 487 nM
- IC50 [43]: 194 nM
- IC50 [63]: 17.8 nM
- IC50 [44]: 537 nM
- IC50 [45]: 2760 nM
- IC50 [64]: 596 nM
- IC50 [65]: 190 nM
- IC50 [46]: 545 nM
